Measurements from patent US20240360177A1, “PEPTIDES WITH ANTIMICROBIAL ACTIVITIES” (priority 2021, published 2024).
Values after ≈ are worked out from the molar mass of the structure shown. Like-named read-outs stand apart in the source and are kept apart here. Non-standard residues stand in square brackets, D forms with d. Residues, ends and D or L forms follow the SMILES beside them. αMeL = CC(C)C[C@](C)(N)C(=O)O; hLeu = CC(C)CC[C@H](N)C(=O)O; NBuGly = CCCCNCC(=O)O; AEA = NCCOCC(=O)O; Ava = NCCCCC(=O)O

Legend:
[1] = system: C. albicans
[2] = system: C. tropicalis
[3] = system: C. glabrata
[4] = system: C. krusei
[5] = system: C. auris
[6] = system: C. dubliniensis
[7] = system: C. parapsilosis

MIC C. albicans ([1]; 24 h) [µg/mL] | MIC C. tropicalis ([2]; 24 h) [µg/mL] | MIC C. glabrata ([3]; 24 h) [µg/mL] | MIC C. krusei ([4]; 24 h) [µg/mL] | MIC C. auris ([5]; 24 h) [µg/mL] | MIC C. dubliniensis ([6]; 24 h) [µg/mL] | MIC C. parapsilosis ([7]; 24 h) [µg/mL] | Compound | MIC C. albicans ([1]; ATCC 90028 or 90029, 24 hrs) [µg/mL] | MIC C. tropicalis ([2]; ATCC 90874, 24 hrs) [µg/mL] | MIC C. glabrata ([3]; ATCC 90030, 24 hrs) [µg/mL] | MIC C. krusei ([4]; MMX 7135, 24 hrs) [µg/mL] | MIC C. auris ([5]; CDC 386, 24 hrs) [µg/mL] | MIC C. dubliniensis ([6]; ATCC MYA-578, 24 hrs) [µg/mL] | MIC C. parapsilosis ([7]; ATCC 22019, 24 hrs) [µg/mL]
0.5 (≈ 0.2 µM) | 0.5 (≈ 0.2 µM) | 0.5 (≈ 0.2 µM) | 1 (≈ 0.4 µM) | 2 (≈ 0.799 µM) | 0.5 (≈ 0.2 µM) | 0.25 (≈ 0.0999 µM) | N=C(N)NCCC[C@@H](N)C(=O)N[C@@H](CCCNC(=N)N)C(=O)N[C@H](CCCNC(=N)N)C(=O)NCCCCC(=O)N[C@H](CCCNC(=N)N)C(=O)N[C@@H](CCCNC(=N)N)C(=O)N[C@H](CCCNC(=N)N)C(=O)NCCCCC(=O)N[C@H](CCCNC(=N)N)C(=O)N[C@@H](CCCNC(=N)N)C(=O)N[C@H](CCCNC(=N)N)C(=O)N[C@@H](CCCNC(=N)N)C(=O)NCCCCC(=O)N[C@H](CCCNC(=N)N)C(=O)N[C@@H](CCCNC(=N)N)C(=O)N[C@H](CCCNC(=N)N)C(=O)N[C@@H](CCCNC(=N)N)C(=O)O [SEQ ID NO: 19, rRr-(Ava)-rRr-(Ava)-rRrR-(Ava)-rRrR] (H-[dR]R[dR][Ava][dR]R[dR][Ava][dR]R[dR]R[Ava][dR]R[dR]R-OH) | – | – | – | – | – | – | –
– | – | – | – | – | – | – | N=C(N)NCCC[C@@H](N)C(=O)N[C@@H](CCCNC(=N)N)C(=O)N[C@H](CCCNC(=N)N)C(=O)NCCCCC(=O)N[C@H](CCCNC(=N)N)C(=O)N[C@@H](CCCNC(=N)N)C(=O)N[C@H](CCCNC(=N)N)C(=O)NCCCCC(=O)N[C@H](CCCNC(=N)N)C(=O)N[C@@H](CCCNC(=N)N)C(=O)N[C@H](CCCNC(=N)N)C(=O)N[C@@H](CCCNC(=N)N)C(=O)NCCCCC(=O)N[C@H](CCCNC(=N)N)C(=O)N[C@@H](CCCNC(=N)N)C(=O)N[C@H](CCCNC(=N)N)C(=O)N[C@@H](CCCNC(=N)N)C(=O)N[C@@H](CCC(=O)O)C(=O)O [SEQ ID NO: 20, rRr-(Ava)-rRr-(Ava)-rRrR-(Ava)-rRrR-Glu] (H-[dR]R[dR][Ava][dR]R[dR][Ava][dR]R[dR]R[Ava][dR]R[dR]RE-OH) | 0.5 (≈ 0.19 µM) | 0.5 (≈ 0.19 µM) | 1 (≈ 0.38 µM) | 2 (≈ 0.76 µM) | 16 (≈ 6.08 µM) | 0.5 (≈ 0.19 µM) | 0.25 (≈ 0.095 µM)
0.5 (≈ 0.2 µM) | 0.5 (≈ 0.2 µM) | 0.5 (≈ 0.2 µM) | 0.5 (≈ 0.2 µM) | 0.5 (≈ 0.2 µM) | 0.5 (≈ 0.2 µM) | 0.25 (≈ 0.1 µM) | N=C(N)NCCC[C@@H](N)C(=O)N[C@@H](CCCNC(=N)N)C(=O)N[C@H](CCCNC(=N)N)C(=O)N[C@@H](CCCNC(=N)N)C(=O)NCCCCC(=O)N[C@H](CCCNC(=N)N)C(=O)N[C@@H](CCCNC(=N)N)C(=O)N[C@H](CCCNC(=N)N)C(=O)N[C@@H](CCCNC(=N)N)C(=O)NCCCCC(=O)N[C@H](CCCNC(=N)N)C(=O)N[C@@H](CCCNC(=N)N)C(=O)N[C@H](CCCNC(=N)N)C(=O)NCCCCC(=O)N[C@H](CCCNC(=N)N)C(=O)N[C@@H](CCCNC(=N)N)C(=O)N[C@H](CCCNC(=N)N)C(N)=O [SEQ ID NO: 21, rRrR-(Ava)-rRrR-(Ava)-rRr-(Ava)-rRr-NH2] (H-[dR]R[dR]R[Ava][dR]R[dR]R[Ava][dR]R[dR][Ava][dR]R[dR]-NH2) | – | – | – | – | – | – | –
0.5 (≈ 0.197 µM) | 0.5 (≈ 0.197 µM) | 0.5 (≈ 0.197 µM) | 0.5 (≈ 0.197 µM) | 0.5 (≈ 0.197 µM) | 0.5 (≈ 0.197 µM) | 0.25 (≈ 0.0983 µM) | CCCCN(CC(=O)N[C@H](CCCNC(=N)N)C(=O)N[C@@H](CCCNC(=N)N)C(=O)N[C@H](CCCNC(=N)N)C(=O)N[C@@H](CCCNC(=N)N)C(N)=O)C(=O)[C@H](CCCNC(=N)N)NC(=O)[C@@H](CCCNC(=N)N)NC(=O)[C@H](CCCNC(=N)N)NC(=O)[C@@H](CCCNC(=N)N)NC(=O)CN(CCCC)C(=O)[C@@H](CCCNC(=N)N)NC(=O)[C@H](CCCNC(=N)N)NC(=O)[C@@H](CCCNC(=N)N)NC(=O)CN(CCCC)C(=O)[C@@H](CCCNC(=N)N)NC(=O)[C@H](CCCNC(=N)N)NC(=O)[C@H](N)CCCNC(=N)N [SEQ ID NO: 35, rRr-(ButylGly)-rRr-(ButylGly)-rRrR-(ButylGly)-rRrR-NH2] (H-[dR]R[dR][NBuGly][dR]R[dR][NBuGly][dR]R[dR]R[NBuGly][dR]R[dR]R-NH2) | – | – | – | – | – | – | –
0.5 (≈ 0.193 µM) | 0.5 (≈ 0.193 µM) | 0.5 (≈ 0.193 µM) | 1 (≈ 0.387 µM) | 1 (≈ 0.387 µM) | 0.5 (≈ 0.193 µM) | 0.5 (≈ 0.193 µM) | CC(C)C[C@](C)(NC(=O)[C@H](CCCNC(=N)N)NC(=O)[C@@H](CCCNC(=N)N)NC(=O)[C@H](CCCNC(=N)N)NC(=O)[C@@H](CCCNC(=N)N)NC(=O)[C@](C)(CC(C)C)NC(=O)[C@@H](CCCNC(=N)N)NC(=O)[C@H](CCCNC(=N)N)NC(=O)[C@@H](CCCNC(=N)N)NC(=O)[C@](C)(CC(C)C)NC(=O)[C@@H](CCCNC(=N)N)NC(=O)[C@H](CCCNC(=N)N)NC(=O)[C@H](N)CCCNC(=N)N)C(=O)N[C@H](CCCNC(=N)N)C(=O)N[C@@H](CCCNC(=N)N)C(=O)N[C@H](CCCNC(=N)N)C(=O)N[C@@H](CCCNC(=N)N)C(N)=O [SEQ ID NO: 37, rRr-Leu(Me)-rRr-Leu(Me)-rRrR-Leu(Me)-rRrR-NH2] (H-[dR]R[dR][αMeL][dR]R[dR][αMeL][dR]R[dR]R[αMeL][dR]R[dR]R-NH2) | – | – | – | – | – | – | –
1 (≈ 0.4 µM) | 0.5 (≈ 0.2 µM) | 1 (≈ 0.4 µM) | – | – | 0.5 (≈ 0.2 µM) | 0.5 (≈ 0.2 µM) | N=C(N)NCCC[C@@H](N)C(=O)N[C@@H](CCCNC(=N)N)C(=O)N[C@H](CCCNC(=N)N)C(=O)NCCCCC(=O)N[C@H](CCCNC(=N)N)C(=O)N[C@@H](CCCNC(=N)N)C(=O)N[C@H](CCCNC(=N)N)C(=O)NCCCCC(=O)N[C@H](CCCNC(=N)N)C(=O)N[C@@H](CCCNC(=N)N)C(=O)N[C@H](CCCNC(=N)N)C(=O)N[C@@H](CCCNC(=N)N)C(=O)NCCOCC(=O)N[C@H](CCCNC(=N)N)C(=O)N[C@@H](CCCNC(=N)N)C(=O)N[C@H](CCCNC(=N)N)C(=O)N[C@@H](CCCNC(=N)N)C(N)=O [SEQ ID NO: 49, rRr-(Ava)-rRr-(Ava)-rRrR-(Aea)-rRrR-NH2] (H-[dR]R[dR][Ava][dR]R[dR][Ava][dR]R[dR]R[AEA][dR]R[dR]R-NH2) | – | – | – | – | – | – | –
0.5 (≈ 0.2 µM) | 0.5 (≈ 0.2 µM) | 1 (≈ 0.399 µM) | – | – | 0.25 (≈ 0.0998 µM) | 0.25 (≈ 0.0998 µM) | N=C(N)NCCC[C@@H](N)C(=O)N[C@@H](CCCNC(=N)N)C(=O)N[C@H](CCCNC(=N)N)C(=O)NCCCCC(=O)N[C@H](CCCNC(=N)N)C(=O)N[C@@H](CCCNC(=N)N)C(=O)N[C@H](CCCNC(=N)N)C(=O)NCCOCC(=O)N[C@H](CCCNC(=N)N)C(=O)N[C@@H](CCCNC(=N)N)C(=O)N[C@H](CCCNC(=N)N)C(=O)N[C@@H](CCCNC(=N)N)C(=O)NCCOCC(=O)N[C@H](CCCNC(=N)N)C(=O)N[C@@H](CCCNC(=N)N)C(=O)N[C@H](CCCNC(=N)N)C(=O)N[C@@H](CCCNC(=N)N)C(N)=O [SEQ ID NO: 51, rRr-(Ava)-rRr-(Aea)-rRrR-(Aea)-rRrR-NH2] (H-[dR]R[dR][Ava][dR]R[dR][AEA][dR]R[dR]R[AEA][dR]R[dR]R-NH2) | – | – | – | – | – | – | –
0.5 (≈ 0.203 µM) | 0.5 (≈ 0.203 µM) | 1 (≈ 0.406 µM) | – | – | 0.5 (≈ 0.203 µM) | 1 (≈ 0.406 µM) | CC(C)CC[C@H](NC(=O)[C@@H](CCCNC(=N)N)NC(=O)[C@H](CCCNC(=N)N)NC(=O)[C@@H](CCCNC(=N)N)NC(=O)[C@@H]1CCCN1C(=O)[C@H](CCCNC(=N)N)NC(=O)[C@@H](CCCNC(=N)N)NC(=O)[C@H](CCCNC(=N)N)NC(=O)[C@@H](CCCNC(=N)N)NC(=O)[C@@H]1CCCN1C(=O)[C@@H](CCCNC(=N)N)NC(=O)[C@H](CCCNC(=N)N)NC(=O)[C@@H](CCCNC(=N)N)NC(=O)[C@@H]1CCCN1C(=O)[C@@H](CCCNC(=N)N)NC(=O)[C@H](CCCNC(=N)N)NC(=O)[C@H](N)CCCNC(=N)N)C(N)=O [SEQ ID NO: 93, rRr-P-rRr-P-rRrR-P-rRr(hLeu)-NH2] (H-[dR]R[dR]P[dR]R[dR]P[dR]R[dR]RP[dR]R[dR][hLeu]-NH2) | – | – | – | – | – | – | –
1 (≈ 0.41 µM) | 1 (≈ 0.41 µM) | 0.5 (≈ 0.205 µM) | – | – | 0.5 (≈ 0.205 µM) | 1 (≈ 0.41 µM) | CC(C)CC[C@H](NC(=O)[C@@H](CCCNC(=N)N)NC(=O)[C@H](CCCNC(=N)N)NC(=O)[C@@H](CCCNC(=N)N)NC(=O)[C@@H]1CCCN1C(=O)[C@H](CCCNC(=N)N)NC(=O)[C@@H](CCCNC(=N)N)NC(=O)[C@H](CCCNC(=N)N)NC(=O)[C@@H](CCCNC(=N)N)NC(=O)[C@@H]1CCCN1C(=O)[C@@H](CCCNC(=N)N)NC(=O)[C@H](CCCNC(=N)N)NC(=O)[C@@H](CCCNC(=N)N)NC(=O)[C@@H]1CCCN1C(=O)[C@@H](CCCNC(=N)N)NC(=O)[C@H](CCCNC(=N)N)NC(=O)[C@@H](N)CCC(C)C)C(N)=O [SEQ ID NO: 95, (hLeu)Rr-P-rRr-P-rRrR-P-rRr(hLeu)-NH2] (H-[hLeu]R[dR]P[dR]R[dR]P[dR]R[dR]RP[dR]R[dR][hLeu]-NH2) | – | – | – | – | – | – | –

Compound | MIC C. albicans ([1]; 24 h) [µg/mL] | MIC C. tropicalis ([2]; 24 h) [µg/mL] | MIC C. glabrata ([3]; 24 h) [µg/mL] | MIC C. krusei ([4]; 24 h) [µg/mL] | MIC C. auris ([5]; 24 h) [µg/mL] | MIC C. dubliniensis ([6]; 24 h) [µg/mL] | MIC C. parapsilosis ([7]; 24 h) [µg/mL] | MIC C. albicans ([1]; ATCC 90028 or 90029, 24 hrs) [µg/mL] | MIC C. tropicalis ([2]; ATCC 90874, 24 hrs) [µg/mL] | MIC C. glabrata ([3]; ATCC 90030, 24 hrs) [µg/mL] | MIC C. krusei ([4]; MMX 7135, 24 hrs) [µg/mL] | MIC C. auris ([5]; CDC 386, 24 hrs) [µg/mL] | MIC C. dubliniensis ([6]; ATCC MYA-578, 24 hrs) [µg/mL] | MIC C. parapsilosis ([7]; ATCC 22019, 24 hrs) [µg/mL]
rR-(Apg)-rR-(Apg)-rRr-(Apg)-rRr-NH2 [SEQ ID NO: 39] | 0.25 | 0.25 | 8 | – | – | 0.12 | 0.12 | – | – | – | – | – | – | –
